Earlier results in patent publication US7976869B2, “Fenofibrate tablets” (Laboratoires Fournier S.A., priority 2001, dated 2011).
Where two headings read alike, the source gives them in different places.

Details: conventional gelatin capsule form

bioavailability (after a meal): 89% | bioavailability (on an empty stomach): 26%
SMILES: CC(C)OC(=O)C(C)(C)Oc1ccc(C(=O)c2ccc(Cl)cc2)cc1 [Fenofibrate]
